Experimental data published in patent US20240166669A1, “QUINAZOLINE AMINE DERIVATIVES AS KRAS INHIBITORS” (Nikang Therapeutics, Inc., priority 2021, published 2024).

Target: T1, K-Ras G12D (Homo sapiens, UniProt P01116, G12D)
T1 construct: AGS (Cobioer, CBP60476) cell lines which harbor KRAS G12D mutation; host or cells: AGS
Test: p-ERK Cellular 2-Plate Assay (Biological Example 2)
Type: cell-based
Details: AGS cells (KRAS G12D), 3 h treatment, AlphaLISA p-ERK1/2, 2-plate; Biological Example 2 (unmarked values); read-out: AGS PERK EC50
Method: The ability of the compound of Formula (IIA′), (II′), or (II) or a pharmaceutically acceptable salt thereof (test compound) to inhibit K-Ras G12D activity was tested using AGS (Cobioer, CBP60476) cell lines which harbor KRAS G12D mutation as described below.
AGS (Cobioer, CBP60476) were seeded in 384-well plates and cultured overnight (10.000 cells per well 40 μl total volume). The following morning, cells were treated with test compound, with staring concentration at 10 μM and 3-fold dilution down to 0.5 nM for 3 h at 37° C., DMSO treatment served as control. p-ERK was then measured using AlphaLISA SureFire Ultra p-ERK1/2 (Thr202/Tyr204) Assay Kit (Perkin Elmer, cat #ALSU-PERK) following the manufacturer's instruction as follows.
Briefly, the culture medium was removed and 20 μl 1× lysis buffer was added to each well, followed by 30 minutes incubation on a plate shaker at room temperature. Then 10 μl of lysate was transferred to a white 384-well plate. Acceptor mixture was prepared according to manufacturer's instruction. 5 μl acceptor mixture was added to the cell lysate and the plate was wrapped with foil, spun at 500 rpm for 10 s, and incubated at RT for 60 min. Donor mixture was prepared under subdued light. 5 μl donor mixture was added to the cell lysate and the plate was spun at 500 rpm for 10s and incubated at RT for another 60 min. in the dark. Signal was then measured on a EnVision 2105 multimode plate reader. Percentage inhibition was calculated with DMSO treatment as 100% of signal, and IC50 was calculated by XLfit 5.5.x.

T1 sequence (P01116 1-188 isoform P01116-2 G12D): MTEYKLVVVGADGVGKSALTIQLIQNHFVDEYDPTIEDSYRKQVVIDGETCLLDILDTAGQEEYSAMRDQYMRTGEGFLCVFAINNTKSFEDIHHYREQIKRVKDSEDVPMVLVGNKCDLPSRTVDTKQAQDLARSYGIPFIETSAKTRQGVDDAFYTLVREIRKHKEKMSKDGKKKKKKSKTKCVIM

Point of comparison: C#Cc1cccc2cc(O)cc(-c3ncc4c(N5CC6CCC(C5)N6)nc(OCC56CCCN5CC(=CC)C6)nc4c3F)c12 (centres unmarked) [Example 15], EC50 0.1 nM. Against it:
- C#Cc1cccc2cc(O)cc(-c3ncc4c(N5CC6CCC(C5)N6)nc(OC[C@@]56CCCN5[C@@H]5CCOCC5C6)nc4c3F)c12 (mixture of isomers) [Example 23] — 4.8-fold higher, 0.48 nM
- C#Cc1cccc2cc(O)cc(-c3ncc4c(N5CC6CCC(C5)N6)nc(OC[C@]56CCCN5[C@H]5c7ccnn7CC5C6)nc4c3F)c12 (mixture of isomers) [Example 37] — 66-fold higher, 6.6 nM
- C#Cc1cccc2cc(O)cc(-c3ncc4c(N5CC6CCC(C5)N6)nc(OC[C@]56CCCN5[C@H]5c7cccnc7OCC5C6)nc4c3F)c12 (mixture of isomers) [Example 38] — 11-fold higher, 1.1 nM
- C#Cc1cccc2cc(O)cc(-c3ncc4c(N5CC6CCC(C5)N6)nc(OC[C@]56CCCN5[C@H]5c7ccccc7OCC5C6)nc4c3F)c12 (mixture of isomers) [Example 39] — 2.5-fold higher, 0.25 nM
- C#Cc1cccc2cc(O)cc(-c3ncc4c(N5C[C@H]6CC[C@@H](C5)N6)nc(OCC56CCCN5CC(=C)C6)nc4c3F)c12 (stereo partly drawn) [Example 1, 4-(4-((1R,5S)-3,8-diazabicyclo[3.2.1]octan-3-yl)-8-fluoro-2-((2-methylene-tetrahydro-1H-pyrrolizin-7a(5H)-yl)methoxy)pyrido[4,3-d]pyrimidin-7-yl)-5-ethynyl-naphthalen-2-ol] — 2-fold higher, 0.2 nM
- C#Cc1cccc2cc(O)cc(-c3ncc4c(N5C[C@H]6CC[C@@H](C5)N6)nc(OCC56CCCN5CC(=CF)C6)nc4c3F)c12 (stereo partly drawn) [Example 2, 4-(4-((1R,5S)-3,8-diazabicyclo[3.2.1]octan-3-yl)-8-fluoro-2-((2-(fluoro-methylene)tetrahydro-1H-pyrrolizin-7a(5H)-yl)methoxy)pyrido[4,3-d]pyrimidin-7-yl)-5-ethynylnaphthalen-2-ol] — 2-fold higher, 0.2 nM
- C#Cc1cccc2cc(O)cc(-c3ncc4c(N5C[C@H]6CC[C@@H](C5)N6)nc(OCC56CCCN5CC(=CC(F)F)C6)nc4c3F)c12 (stereo partly drawn) [Example 3, 4-(4-((1R,5S)-3,8-diazabicyclo[3.2.1]octan-3-yl)-2-((2-(2,2-difluoroethylidene)-tetrahydro-1H-pyrrolizin-7a(5H)-yl)methoxy)-8-fluoropyrido[4,3-d]pyrimidin-7-yl)-5-ethynylnaphthalen-2-ol] — 15-fold higher, 1.5 nM
- C#Cc1cccc2cc(O)cc(-c3ncc4c(N5C[C@H]6CC[C@@H](C5)N6)nc(OCC56CCCN5c5ccccc5C6)nc4c3F)c12 (stereo partly drawn) [Example 5, 4-(4-((1R,5S)-3,8-diazabicyclo[3.2.1]octan-3-yl)-2-((2,3-dihydro-1H-pyrrolo[1,2-a]-indol-9a(9H)-yl)methoxy)-8-fluoropyrido[4,3-d]pyrimidin-7-yl)-5-ethynylnaphthalen-2-ol] — 3200-fold higher, 320 nM
- C#Cc1cccc2cc(O)cc(-c3ncc4c(N5C[C@H]6CC[C@@H](C5)N6)nc(OCC56CCCN5Cc5ccccc56)nc4c3F)c12 (stereo partly drawn) [Example 6, 4-(4-((1R,5S)-3,8-diazabicyclo[3.2.1]octan-3-yl)-2-((2,3-dihydro-1H-pyrrolo[2,1-a]-isoindol-9b(5H)-yl)methoxy)-8-fluoropyrido[4,3-d]pyrimidin-7-yl)-5-ethynylnaphthalen-2-ol] — 6-fold higher, 0.6 nM
- C#Cc1cccc2cc(O)cc(-c3ncc4c(N5CC6C=C(C#N)C(C5)N6)nc(OCC56CCCN5CCC6)nc4c3F)c12 (centres unmarked) [Example 7, 3-(7-(8-ethynyl-3-hydroxynaphthalen-1-yl)-8-fluoro-2-((tetrahydro-1H-pyrrolizin-7a(5H)-yl)methoxy)pyrido[4,3-d]pyrimidin-4-yl)-3,8-diazabicyclo[3.2.1]oct-6-ene-6-carbonitrile] — 2600-fold higher, 260 nM
- C#Cc1cccc2cc(O)cc(-c3ncc4c(N5CC6NC(C5)C5CC65)nc(OCC56CCCN5CCC6)nc4c3F)c12 (centres unmarked) [Example 9, 5-ethynyl-4-(8-fluoro-2-((tetrahydro-1H-pyrrolizin-7a(5H)-yl)methoxy)-4-(7,9-diazatricyclo[3.3.1.02,4]nonan-7-yl)pyrido[4,3-d]pyrimidin-7-yl)naphthalen-2-ol] — 2500-fold higher, 253 nM
- C#Cc1cccc2cc(O)cc(-c3ncc4c(N5CC6CC(=C)C(C5)N6)nc(OCC56CCCN5CCC6)nc4c3F)c12 (centres unmarked) [Example 10, 5-ethynyl-4-(8-fluoro-4-(6-methylene-3,8-diazabicyclo[3.2.1]octan-3-yl)-2-((tetrahydro-1H-pyrrolizin-7a(5H)-yl)methoxy)pyrido[4,3-d]pyrimidin-7-yl)naphthalen-2-ol] — 1300-fold higher, 128 nM
- C#Cc1c(F)ccc2cccc(-c3ncc4c(N5C[C@H]6CC[C@@H](C5)N6)nc(OCC56CCCN5CC(=C)C6)nc4c3F)c12 (stereo partly drawn) [Example 11, 4-((1R,5S)-3,8-diazabicyclo[3.2.1]octan-3-yl)-7-(8-ethynyl-7-fluoronaphthalen-1-yl)-8-fluoro-2-((2-methylenetetrahydro-TH-pyrrolizin-7a(5H)-yl)methoxy)pyrido[4,3-d]pyrimidine] — 70-fold higher, 7 nM
- C#Cc1c(F)ccc2cccc(-c3ncc4c(N5CC6CCC(C5)N6)nc(OCC56CCCN5Cc5ccccc56)nc4c3F)c12 (centres unmarked) [Example 12, 9b-(((4-(3,8-diazabicyclo[3.2.1]octan-3-yl)-7-(8-ethynyl-7-fluoronaphthalen-1-yl)-8-fluoropyrido[4,3-d]pyrimidin-2-yl)oxy)methyl)-2,3,5,9b-tetrahydro-1H-pyrrolo[2,1-a]isoindole] — 1000-fold higher, 105 nM
- C=C1CN2CCCC2(COc2nc(N3C[C@H]4CC[C@@H](C3)N4)c3cnc(-c4cc(O)cc5cccc(F)c45)c(F)c3n2)C1 (stereo partly drawn) [Example 22, 4-(4-((1R,5S)-3,8-diazabicyclo-[3.2.1]octan-3-yl)-8-fluoro-2-((2-methylenetetrahydro-1H-pyrrolizin-7a(5H)-yl)methoxy)pyrido[4,3-d]-pyrimidin-7-yl)-5-fluoronaphthalen-2-ol] — 10-fold higher, 1 nM
- C#Cc1cccc2cc(O)cc(-c3ncc4c(N5CC6CCC(C5)N6)nc(OCC56CCCN5Cc5c(F)cccc56)nc4c3F)c12 (centres unmarked) [Example 24, 4-(4-(3,8-diazabicyclo[3.2.1]octan-3-yl)-8-fluoro-2-((6-fluoro-2,3-dihydro-1H-pyrrolo[2,1-a]isoindol-9b(5H)-yl)-methoxy)pyrido[4,3-d]pyrimidin-7-yl)-5-ethynylnaphthalen-2-ol] — 37-fold higher, 3.7 nM
- C#Cc1cccc2cc(O)cc(-c3ncc4c(N5CC6CCC(C5)N6)nc(OCC56CCCN5Cc5cc(F)ccc56)nc4c3F)c12 (centres unmarked) [Example 25, 4-(4-(3,8-diazabicyclo[3.2.1]octan-3-yl)-8-fluoro-2-((7-fluoro-2,3-dihydro-1H-pyrrolo[2,1-a]isoindol-9b(5H)-yl)-methoxy)pyrido[4,3-d]pyrimidin-7-yl)-5-ethynylnaphthalen-2-ol] — 30-fold higher, 3 nM
- C#Cc1cccc2cc(O)cc(-c3ncc4c(N5CC6CCC(C5)N6)nc(OCC56CCCN5Cc5ccc(F)cc56)nc4c3F)c12 (centres unmarked) [Example 26, 4-(4-(3,8-diazabicyclo[3.2.1]octan-3-yl)-8-fluoro-2-((8-fluoro-2,3-dihydro-1H-pyrrolo[2,1-a]isoindol-9b(5H)-yl)-methoxy)pyrido[4,3-d]pyrimidin-7-yl)-5-ethynylnaphthalen-2-ol] — 70-fold higher, 7 nM
- C#Cc1cccc2cc(O)cc(-c3ncc4c(N5CC6CCC(C5)N6)nc(OCC56CCCN5Cc5cccc(F)c56)nc4c3F)c12 (centres unmarked) [Example 27, 4-(4-(3,8-diazabicyclo[3.2.1]octan-3-yl)-8-fluoro-2-((9-fluoro-2,3-dihydro-1H-pyrrolo[2,1-a]isoindol-9b(5H)-yl)-methoxy)pyrido[4,3-d]pyrimidin-7-yl)-5-ethynylnaphthalen-2-ol] — 200-fold higher, 20 nM
